Read-outs that look alike come from different tables or passages of the source.
Key:
AhR [1] = target: T1, AhR (Rattus norvegicus, UniProt P41738); test: AhR induction, luciferase reporter gene (CALUX), rat H4L7.5c2 cells; assay type: cell-based; conditions: 6 h incubation
T1 construct: cells that were stably transfected with a luciferase reporter gene; endogenous in cells; host or cells: H4L7.5c2 (rat)
T1 sequence (P41738 10-853): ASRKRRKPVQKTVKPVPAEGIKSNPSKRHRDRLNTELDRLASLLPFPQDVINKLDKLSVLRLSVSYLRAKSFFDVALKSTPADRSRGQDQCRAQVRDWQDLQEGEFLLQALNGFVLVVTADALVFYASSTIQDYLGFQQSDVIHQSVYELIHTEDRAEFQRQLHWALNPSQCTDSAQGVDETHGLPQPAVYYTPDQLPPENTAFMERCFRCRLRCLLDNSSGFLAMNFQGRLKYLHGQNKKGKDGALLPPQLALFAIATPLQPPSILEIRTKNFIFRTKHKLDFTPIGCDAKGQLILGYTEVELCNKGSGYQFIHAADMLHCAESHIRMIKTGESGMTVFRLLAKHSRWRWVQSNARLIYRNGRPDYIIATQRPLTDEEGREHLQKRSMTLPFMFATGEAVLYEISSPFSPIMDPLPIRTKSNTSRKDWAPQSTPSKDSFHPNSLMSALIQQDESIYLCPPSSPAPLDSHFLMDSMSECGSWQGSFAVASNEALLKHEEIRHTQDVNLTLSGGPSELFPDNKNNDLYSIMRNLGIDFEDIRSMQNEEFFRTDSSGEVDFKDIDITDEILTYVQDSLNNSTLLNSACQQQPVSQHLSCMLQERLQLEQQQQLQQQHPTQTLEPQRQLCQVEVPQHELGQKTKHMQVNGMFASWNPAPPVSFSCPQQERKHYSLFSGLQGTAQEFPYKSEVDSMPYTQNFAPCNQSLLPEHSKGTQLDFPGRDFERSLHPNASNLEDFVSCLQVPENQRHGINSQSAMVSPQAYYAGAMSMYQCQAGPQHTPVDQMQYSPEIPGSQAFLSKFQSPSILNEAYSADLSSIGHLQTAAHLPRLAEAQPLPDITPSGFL
Experimental: (§1) The activity on AhR of the synthesized compounds was evaluated in cells that were stably transfected with a luciferase reporter gene. They were tested in four different cell lines, namely in human (HG2L7.5c1), mouse (H1L7.5c3), rat (H4L7.5c2) and guinea pig (G16L7.5c1) cells.
(§2) The synthesized alkaloids were evaluated for their ability to induce AhR in four different cell lines, more specifically in human (HG2L7.5c1), mouse (H1L7.5c3), rat (H4L7.5c2) and guinea pig (G16L7.5c1) cells that were stably transfected with a luciferase reporter gene. The results were calculated in EC50 (M) and compared to those of dioxin (TCDD), the principal ligand of the receptor. The protocol followed is described below.
(§3) Human, mouse, rat and guinea pig cells were grown in 100 mm cell culture plates (Corning Glass Works; Corning, NY, USA) using a sterile technique, maintained in alpha-minimum essential media (α-MEM) supplemented with 10% (v/v) fetal bovine serum (FBS) and G418 (1 mg/mL), and incubated at >80% humidity and 37◦C. For the CALUX analysis, plates of stable cell clones (approximately 80–100% confluent) were trypsinized and resuspended in 20 mL α-MEM. An aliquot (100 μL) of the indicated cell suspension was added into sterile 96-well tissue culture plates (Corning), and the plates were incubated for 24 h prior to ligand exposure, allowing the cells to reach confluence. Prior to ligand addition, the wells were washed with 1 × phosphate-buffered saline (PBS), and then, cells were incubated with the indicated concentration of DMSO (10 μL/mL) or corresponding solutions of TCDD or tested compounds in DMSO for 6 h or 24 h at 37 °C. After incubation, the cells were washed twice with PBS, 100 μL of 1 × Lysis buffer (Promega; Madison, WI, USA) was added to each well, and the plate was placed on a plate shaker at room temperature until the cells were lysed (approximately 20 min). Luciferase activity was measured using an automated microplate luminometer (Anthos Lucy2, Anthos Labtec Instruments, Wals/Salzburg, Austria) in enhanced flash mode with the automatic injection of 50 μL of Promega-stabilized luciferase reagent. Examples of the induction curves of the tested compounds are available in the Supplementary Materials.

AhR [2] = target: T2, AhR (Cavia porcellus, UniProt Q6J287); test: AhR induction, luciferase reporter gene (CALUX), guinea pig G16L7.5c1 cells; assay type: cell-based; conditions: 6 h incubation
T2 construct: cells that were stably transfected with a luciferase reporter gene; endogenous in cells; host or cells: G16L7.5c1 (guinea pig)
T2 sequence (Q6J287 1-846): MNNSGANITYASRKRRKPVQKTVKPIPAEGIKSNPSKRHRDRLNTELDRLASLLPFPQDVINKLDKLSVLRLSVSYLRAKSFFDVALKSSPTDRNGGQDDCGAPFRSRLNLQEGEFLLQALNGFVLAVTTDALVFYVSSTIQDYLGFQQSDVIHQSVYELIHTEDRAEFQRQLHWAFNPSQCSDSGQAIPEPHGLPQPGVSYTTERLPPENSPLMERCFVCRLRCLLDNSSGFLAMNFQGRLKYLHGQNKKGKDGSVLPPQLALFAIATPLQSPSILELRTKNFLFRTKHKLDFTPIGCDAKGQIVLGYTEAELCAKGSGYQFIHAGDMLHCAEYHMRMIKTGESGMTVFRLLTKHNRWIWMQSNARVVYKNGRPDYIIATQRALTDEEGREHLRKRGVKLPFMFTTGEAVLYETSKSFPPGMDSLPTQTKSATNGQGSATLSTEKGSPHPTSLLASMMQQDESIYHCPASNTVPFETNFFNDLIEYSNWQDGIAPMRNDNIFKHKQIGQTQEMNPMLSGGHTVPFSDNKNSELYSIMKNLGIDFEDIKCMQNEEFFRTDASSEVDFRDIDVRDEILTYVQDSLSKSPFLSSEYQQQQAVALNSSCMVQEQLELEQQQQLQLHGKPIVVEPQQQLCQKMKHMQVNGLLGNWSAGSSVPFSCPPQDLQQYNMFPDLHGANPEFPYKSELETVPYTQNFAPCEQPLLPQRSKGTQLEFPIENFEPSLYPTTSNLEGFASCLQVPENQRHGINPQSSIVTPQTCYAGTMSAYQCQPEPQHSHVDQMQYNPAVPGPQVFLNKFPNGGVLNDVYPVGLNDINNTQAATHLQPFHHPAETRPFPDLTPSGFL
Experimental: as §1, §2, §3

AhR [3] = target: T3, AhR (Mus musculus, UniProt P30561); test: AhR induction, luciferase reporter gene (CALUX), mouse H1L7.5c3 cells; assay type: cell-based
T3 construct: cells that were stably transfected with a luciferase reporter gene; endogenous in cells; host or cells: H1L7.5c3 (mouse)
T3 sequence (P30561 10-805 limits assumed): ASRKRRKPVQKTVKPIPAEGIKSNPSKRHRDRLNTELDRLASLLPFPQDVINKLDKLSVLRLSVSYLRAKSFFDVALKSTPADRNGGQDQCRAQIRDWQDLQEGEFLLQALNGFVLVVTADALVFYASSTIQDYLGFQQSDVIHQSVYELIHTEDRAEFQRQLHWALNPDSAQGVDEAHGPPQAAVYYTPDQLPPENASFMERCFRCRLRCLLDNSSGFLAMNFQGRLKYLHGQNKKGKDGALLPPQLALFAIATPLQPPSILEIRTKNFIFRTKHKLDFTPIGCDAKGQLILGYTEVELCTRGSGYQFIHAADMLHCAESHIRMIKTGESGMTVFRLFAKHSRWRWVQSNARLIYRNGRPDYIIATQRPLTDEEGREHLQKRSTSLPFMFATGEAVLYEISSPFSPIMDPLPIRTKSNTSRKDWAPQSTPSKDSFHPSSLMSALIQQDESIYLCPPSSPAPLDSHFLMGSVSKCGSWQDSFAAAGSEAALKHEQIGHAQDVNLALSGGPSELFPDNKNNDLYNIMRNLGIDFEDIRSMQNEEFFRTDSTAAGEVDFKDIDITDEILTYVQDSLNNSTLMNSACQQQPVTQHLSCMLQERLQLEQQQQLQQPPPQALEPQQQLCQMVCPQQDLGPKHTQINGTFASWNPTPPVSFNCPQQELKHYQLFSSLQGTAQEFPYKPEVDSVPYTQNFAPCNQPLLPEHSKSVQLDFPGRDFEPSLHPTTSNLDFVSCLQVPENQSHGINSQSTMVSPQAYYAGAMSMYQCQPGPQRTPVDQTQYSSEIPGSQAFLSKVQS
T3 sequence (P11499 whole entry partner): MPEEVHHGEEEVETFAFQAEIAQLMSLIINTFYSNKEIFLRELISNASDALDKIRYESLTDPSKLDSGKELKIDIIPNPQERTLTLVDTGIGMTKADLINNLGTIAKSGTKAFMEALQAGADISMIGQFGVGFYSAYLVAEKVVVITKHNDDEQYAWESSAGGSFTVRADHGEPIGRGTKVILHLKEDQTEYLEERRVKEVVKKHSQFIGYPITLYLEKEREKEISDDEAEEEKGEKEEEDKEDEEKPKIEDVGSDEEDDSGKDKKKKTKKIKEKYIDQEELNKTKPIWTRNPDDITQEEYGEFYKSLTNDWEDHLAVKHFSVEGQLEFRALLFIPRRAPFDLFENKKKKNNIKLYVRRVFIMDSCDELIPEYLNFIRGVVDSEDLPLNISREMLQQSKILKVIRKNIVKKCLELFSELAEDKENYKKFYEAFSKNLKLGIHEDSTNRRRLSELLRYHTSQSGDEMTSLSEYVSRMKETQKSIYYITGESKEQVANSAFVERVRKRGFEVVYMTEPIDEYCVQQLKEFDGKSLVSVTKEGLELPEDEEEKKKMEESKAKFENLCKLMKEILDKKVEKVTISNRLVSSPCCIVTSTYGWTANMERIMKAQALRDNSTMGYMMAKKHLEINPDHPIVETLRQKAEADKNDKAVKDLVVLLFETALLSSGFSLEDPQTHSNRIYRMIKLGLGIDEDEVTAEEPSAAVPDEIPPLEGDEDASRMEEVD
T3 sequence (O08915 whole entry partner): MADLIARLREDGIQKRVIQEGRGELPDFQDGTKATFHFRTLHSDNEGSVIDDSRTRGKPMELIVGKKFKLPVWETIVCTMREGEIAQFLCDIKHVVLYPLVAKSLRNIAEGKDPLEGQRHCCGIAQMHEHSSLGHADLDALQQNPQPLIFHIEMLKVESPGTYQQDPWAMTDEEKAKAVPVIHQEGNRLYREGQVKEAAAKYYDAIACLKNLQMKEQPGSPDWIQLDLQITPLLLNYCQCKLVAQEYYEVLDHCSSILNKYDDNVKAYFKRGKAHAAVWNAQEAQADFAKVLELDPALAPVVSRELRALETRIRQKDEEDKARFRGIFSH
Experimental: as §1, §2, §3

AhR [4] = target: T4, AhR (Homo sapiens, UniProt P35869); test: AhR induction, luciferase reporter gene (CALUX), human HG2L7.5c1 cells; assay type: cell-based; conditions: 6 h incubation
T4 construct: cells that were stably transfected with a luciferase reporter gene; endogenous in cells; host or cells: HG2L7.5c1 (human)
T4 sequence (P35869 11-848): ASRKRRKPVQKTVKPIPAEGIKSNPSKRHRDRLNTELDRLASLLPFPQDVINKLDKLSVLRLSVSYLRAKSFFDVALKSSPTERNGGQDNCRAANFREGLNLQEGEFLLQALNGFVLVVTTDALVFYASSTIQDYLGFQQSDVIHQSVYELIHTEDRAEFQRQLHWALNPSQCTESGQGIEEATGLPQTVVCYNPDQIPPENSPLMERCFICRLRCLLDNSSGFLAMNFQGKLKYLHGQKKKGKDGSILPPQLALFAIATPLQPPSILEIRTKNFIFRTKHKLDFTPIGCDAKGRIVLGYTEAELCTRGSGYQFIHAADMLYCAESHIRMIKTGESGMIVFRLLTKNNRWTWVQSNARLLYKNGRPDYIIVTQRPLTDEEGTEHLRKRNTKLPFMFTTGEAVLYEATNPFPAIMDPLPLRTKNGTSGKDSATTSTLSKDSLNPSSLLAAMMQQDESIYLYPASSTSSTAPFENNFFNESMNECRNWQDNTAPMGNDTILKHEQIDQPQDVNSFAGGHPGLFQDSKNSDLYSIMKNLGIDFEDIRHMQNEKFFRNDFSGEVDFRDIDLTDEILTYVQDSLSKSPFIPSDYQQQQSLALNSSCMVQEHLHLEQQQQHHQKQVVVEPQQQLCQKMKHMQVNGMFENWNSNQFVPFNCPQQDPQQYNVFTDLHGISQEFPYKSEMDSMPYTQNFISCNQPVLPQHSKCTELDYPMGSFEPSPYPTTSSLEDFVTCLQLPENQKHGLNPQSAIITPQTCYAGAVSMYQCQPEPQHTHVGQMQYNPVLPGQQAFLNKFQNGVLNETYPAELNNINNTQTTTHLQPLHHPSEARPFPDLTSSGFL
Experimental: The synthesized alkaloids were evaluated for their ability to induce AhR in four different cell lines, more specifically in human (HG2L7.5c1), mouse (H1L7.5c3), rat (H4L7.5c2) and guinea pig (G16L7.5c1) cells that were stably transfected with a luciferase reporter gene [41]. The results were calculated in EC50 (M) and compared to those of dioxin (TCDD), the principal ligand of the receptor.
Human, mouse, rat and guinea pig cells were grown in 100 mm cell culture plates (Corning Glass Works; Corning, NY, USA) using a sterile technique, maintained in alpha-minimum essential media (α-MEM) supplemented with 10% (v/v) fetal bovine serum (FBS) and G418 (1 mg/mL), and incubated at >80% humidity and 37◦C. For the CALUX analysis, plates of stable cell clones (approximately 80–100% confluent) were trypsinized and resuspended in 20 mL α-MEM. An aliquot (100 μL) of the indicated cell suspension was added into sterile 96-well tissue culture plates (Corning), and the plates were incubated for 24 h prior to ligand exposure, allowing the cells to reach confluence. […] Luciferase activity was measured using an automated microplate luminometer (Anthos Lucy2, Anthos Labtec Instruments, Wals/Salzburg, Austria) in enhanced flash mode with the automatic injection of 50 μL of Promega-stabilized luciferase reagent.

AhR [5] = system: AhR; design: method as in PMID 31292477; conditions: fold reduction vs 6-FICZ; cited from earlier work
[6] = mouse H1L7.5c3 cells, 6 h incubation, read-out: EC50, 6 h Mouse

Row | SMILES | EC50 (AhR [1]) | EC50 (AhR [2]) | EC50 (AhR [3]; [6]) | EC50 (AhR [4]) | reduced activity in comparison to 6-FICZ (AhR [5]) | EC50 (AhR [3])
1 | O=Cc1c2[nH]c3ccccc3c2cc2[nH]c3ccccc3c12 [Compound 1, 6-Formylindolo[3,2-b]carbazole] | 0.0799 nM | 0.577 nM | 0.482 nM | – | – | –
2 | c1ccc2c(c1)[nH]c1cc3c(cc12)[nH]c1ccccc13 [Compound 2, indolo[3,2-b]carbazole] | 0.0095 nM | 0.174 nM | 0.98 nM | 0.64 nM | – | –
3 | Cc1c2[nH]c3ccccc3c2cc2[nH]c3ccccc3c12 [Compound 3, 6-methylindolo[3,2-b]carbazole] | 0.0588 nM | 0.0913 nM | 0.91 nM | 0.308 nM | – | –
4 | OCc1c2[nH]c3ccccc3c2cc2[nH]c3ccccc3c12 [Compound 4, 6-Hydroxymethylindolo[3,2-b]carbazole] | 0.473 nM | 5.77 nM | 0.922 nM | 4.52 nM | more than 10 folds | –
5 | Cc1c2[nH]c3ccccc3c2c(Br)c2[nH]c3ccccc3c12 [Compound 5, 6-Methyl-12-bromoindolo[3,2-b]carbazole] | 0.0598 nM | 0.0993 nM | – | 0.328 nM | – | 0.92 nM
6 | Clc1cc2c(cc1Cl)Oc1cc(Cl)c(Cl)cc1O2 [TCDD, reference compound] | 0.059 nM | 0.1 nM | 0.1 nM | 0.57 nM | – | –

From publication PMC11820409, “Synthesis and Evaluation of the AhR Activity of Indolo[3,2-b]carbazole Derivatives” (Molecules, 2025)
